According to PubChem BioAssay (NCI):
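Values below derive from 48-hour exposures of cells grown in 96-well plates, with endpoints linearly interpolated between the two concentrations bracketing the appropriate inhibition level. At the GI50, growth is halved. At the TGI there is no net growth.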

Columns and labels:
Experiment in all cases: growth of human tumour cells (NCI), 48 h
ACHN renal = test system: ACHN renal
CAKI-1 renal = test system: CAKI-1 renal
CCRF-CEM leukemia = test system: CCRF-CEM leukemia
HL-60(TB) leukemia = test system: HL-60(TB) leukemia
MCF7 breast = test system: MCF7 breast
MDA-N = test system: MDA-N
NCI-H460 lung = test system: NCI-H460 lung
RPMI-8226 leukemia = test system: RPMI-8226 leukemia
SK-OV-3 ovarian = test system: SK-OV-3 ovarian
SR leukemia = test system: SR leukemia

| SMILES | TGI (ACHN renal) | TGI (CAKI-1 renal) | TGI (CCRF-CEM leukemia) | TGI (HL-60(TB) leukemia) | TGI (MCF7 breast) | TGI (MDA-N) | TGI (NCI-H460 lung) | TGI (RPMI-8226 leukemia) | TGI (SK-OV-3 ovarian) | TGI (SR leukemia) | GI50 (ACHN renal) | GI50 (CAKI-1 renal) | GI50 (CCRF-CEM leukemia) | GI50 (HL-60(TB) leukemia) | GI50 (MCF7 breast) | GI50 (NCI-H460 lung) | GI50 (RPMI-8226 leukemia) | GI50 (SR leukemia) | GI50 (SK-OV-3 ovarian) |
| --- | --- | --- | --- | --- | --- | --- | --- | --- | --- | --- | --- | --- | --- | --- | --- | --- | --- | --- | --- |
| CC(=O)[C@H]1CC[C@H]2[C@@H]3CCC4=CC(=O)CC[C@]4(C)[C@H]3CC[C@]12C | 75.2 µM | > 100 µM | 48 µM | 87.1 µM | 50.4 µM | 35.9 µM | 42.4 µM | 26.3 µM | 62.9 µM | > 100 µM | – | – | – | – | – | – | – | – | – |
| NC(Cc1ccccc1)=NCC(=O)O | > 100 µM | > 100 µM | > 100 µM | > 100 µM | > 100 µM | > 100 µM | > 100 µM | > 100 µM | > 100 µM | – | – | – | – | – | – | – | – | – | – |
| O=C(O)CS(=O)c1ccc2c3c(cccc13)C(=O)c1ccccc1-2 (configuration not stated) | > 100 µM | > 100 µM | > 100 µM | > 100 µM | > 100 µM | > 100 µM | > 100 µM | > 100 µM | > 100 µM | > 100 µM | – | – | – | – | – | – | – | – | – |
| Cc1ccc2ccc(=O)oc2c1 | > 100 µM | > 100 µM | > 100 µM | > 100 µM | > 100 µM | > 100 µM | > 100 µM | > 100 µM | – | > 100 µM | – | – | – | – | – | – | – | – | – |
| O=C(Nc1ccc(-n2cc(-c3ccncc3)c(-c3ccc(O)c(Cl)c3)n2)cc1)c1cc(Cl)cc(Cl)c1 | > 32.5 µM | 28 µM | > 32.5 µM | > 32.5 µM | > 32.5 µM | – | > 32.5 µM | 6.18 µM | – | > 32.5 µM | 1.51 µM | 2.64 µM | 1.45 µM | 1.6 µM | 3.33 µM | 2 µM | 1.07 µM | 1.36 µM | – |
| O=C(O)CCC(C(=O)O)N1C(=O)c2ccccc2C1=O (configuration not stated) | > 100 µM | > 100 µM | > 100 µM | > 100 µM | > 100 µM | > 100 µM | > 100 µM | > 100 µM | > 100 µM | > 100 µM | – | – | – | – | – | – | – | – | – |
| CCOC(O)C(F)(F)F (configuration not stated) | > 100 µM | – | > 100 µM | > 100 µM | > 100 µM | > 100 µM | > 100 µM | – | > 100 µM | > 100 µM | – | – | – | – | – | – | – | – | – |
| COc1cc(C(=O)O[C@H](C(=O)NCCNC(=O)[C@@H](OC(=O)c2cc(OC)cc3c(C)cccc23)[C@]2(C)CO2)[C@]2(C)CO2)c2cccc(C)c2c1 | – | 0.252 µM | – | – | 0.0238 µM | – | 0.359 µM | 10.6 µM | 9.74 µM | – | – | 0.0563 µM | < 0.01 µM | < 0.01 µM | < 0.01 µM | < 0.0214 µM | 0.282 µM | – | 0.827 µM |
| O=C(Nc1ccc(Cl)cc1)c1cccc([N+](=O)[O-])c1O | > 100 µM | 17.1 µM | 11.7 µM | 7.18 µM | – | – | > 53.5 µM | 7.2 µM | 13.7 µM | 31.5 µM | – | – | – | – | – | – | – | – | – |
